Source: ChEMBL document CHEMBL1201862, “PubChem BioAssay data set” (2004)
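Five concentrations, 48 hours, 96-well plates. GI50 marks 50% less growth.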 Active and inactive are the calls of the source. Cut-off read from the data, not from the text of the source: active = GI50 up to about 1.1 µM and inactive = higher.

Assays:
Assay in all cases: DTP human tumour cell line panel, 48 h
786-0 = test system: 786-0
A498 = test system: A498
A549 = test system: A549
ACHN = test system: ACHN
BT-549 = test system: BT-549
CAKI-1 = test system: CAKI-1
CCRF-CEM = test system: CCRF-CEM
COLO 205 = test system: COLO 205
DU-145 = test system: DU-145
EKVX = test system: EKVX
HCC 2998 = test system: HCC 2998
HCT-116 = test system: HCT-116
HCT-15 = test system: HCT-15
HL-60 = test system: HL-60
HOP-62 = test system: HOP-62
HOP-92 = test system: HOP-92
HT-29 = test system: HT-29
Hs-578T = test system: Hs-578T
IGROV-1 = test system: IGROV-1
K562 = test system: K562
KM12 = test system: KM12
LOX IMVI = test system: LOX IMVI
MCF7 = test system: MCF7
MDA-MB-231 = test system: MDA-MB-231
MDA-MB-435 = test system: MDA-MB-435
MDA-N = test system: MDA-N
MOLT-4 = test system: MOLT-4
Malme-3M = test system: Malme-3M
NCI-H226 = test system: NCI-H226
NCI-H23 = test system: NCI-H23
NCI-H460 = test system: NCI-H460
NCI-H522 = test system: NCI-H522
NCI/ADR-RES = test system: NCI/ADR-RES
OVCAR-3 = test system: OVCAR-3
OVCAR-4 = test system: OVCAR-4
OVCAR-5 = test system: OVCAR-5
OVCAR-8 = test system: OVCAR-8
PC-3 = test system: PC-3
RPMI-8226 = test system: RPMI-8226
RXF 393 = test system: RXF 393
SF-268 = test system: SF-268
SF-295 = test system: SF-295
SF-539 = test system: SF-539
SK-MEL-28 = test system: SK-MEL-28
SK-MEL-2 = test system: SK-MEL-2
SK-MEL-5 = test system: SK-MEL-5
SK-OV-3 = test system: SK-OV-3
SN12C = test system: SN12C
SNB-19 = test system: SNB-19
SNB-75 = test system: SNB-75
SR = test system: SR
SW-620 = test system: SW-620
T47D = test system: T47D
TK-10 = test system: TK-10
U-251 = test system: U-251
UACC-257 = test system: UACC-257
UACC-62 = test system: UACC-62
UO-31 = test system: UO-31
M14 = test system: M14

With NNC(=O)CC(=O)Nc1cccc(Cl)c1 the GI50 (786-0) was > 100 µM (inactive), the GI50 (A498) was > 100 µM (inactive) and the GI50 (A549) was > 100 µM (inactive). For the same compound, the GI50 (ACHN) was > 100 µM (inactive), the GI50 (BT-549) was > 100 µM (inactive) and the GI50 (CAKI-1) was > 100 µM (inactive). For the same compound, the GI50 (CCRF-CEM) was > 100 µM (inactive), the GI50 (COLO 205) was > 100 µM (inactive) and the GI50 (DU-145) was > 100 µM (inactive). For the same compound, the GI50 (EKVX) was > 100 µM (inactive), the GI50 (HCC 2998) was > 100 µM (inactive) and the GI50 (HCT-116) was > 100 µM (inactive). The GI50 (HCT-15) was > 100 µM, the GI50 (HL-60) was > 100 µM (inactive) and the GI50 (HOP-62) was > 100 µM (inactive). For the same compound, the GI50 (HOP-92) was 47.3 µM (inactive), the GI50 (HT-29) was > 100 µM (inactive) and the GI50 (Hs-578T) was > 100 µM (inactive). For the same compound, the GI50 (IGROV-1) was > 100 µM (inactive), the GI50 (K562) was > 100 µM (inactive) and the GI50 (KM12) was > 100 µM (inactive). The GI50 (LOX IMVI) was > 100 µM (inactive), the GI50 (MCF7) was > 100 µM (inactive) and the GI50 (MDA-MB-231) was > 100 µM (inactive). The GI50 (MDA-MB-435) was > 100 µM (inactive), the GI50 (MDA-N) was > 100 µM (inactive) and the GI50 (MOLT-4) was > 100 µM (inactive). The GI50 (Malme-3M) was > 100 µM (inactive), the GI50 (NCI-H226) was > 100 µM (inactive) and the GI50 (NCI-H23) was > 100 µM (inactive). The GI50 (NCI-H460) was > 100 µM (inactive), the GI50 (NCI-H522) was 25.4 µM (inactive) and the GI50 (NCI/ADR-RES) was 2.21 µM (inactive). The GI50 (OVCAR-3) was > 100 µM (inactive), the GI50 (OVCAR-4) was > 100 µM (inactive) and the GI50 (OVCAR-5) was > 100 µM (inactive). The GI50 (OVCAR-8) was > 100 µM (inactive), the GI50 (PC-3) was > 100 µM (inactive) and the GI50 (RPMI-8226) was > 100 µM (inactive). For the same compound, the GI50 (RXF 393) was > 100 µM (inactive), the GI50 (SF-268) was > 100 µM (inactive) and the GI50 (SF-295) was > 100 µM (inactive). For the same compound, the GI50 (SF-539) was > 100 µM (inactive), the GI50 (SK-MEL-28) was > 100 µM (inactive) and the GI50 (SK-MEL-2) was > 100 µM (inactive). The GI50 (SK-MEL-5) was > 100 µM (inactive), the GI50 (SK-OV-3) was > 100 µM (inactive) and the GI50 (SN12C) was > 100 µM (inactive). For the same compound, the GI50 (SNB-19) was > 100 µM (inactive), the GI50 (SNB-75) was > 100 µM (inactive) and the GI50 (SR) was > 100 µM (inactive). For the same compound, the GI50 (SW-620) was > 100 µM (inactive), the GI50 (T47D) was > 100 µM (inactive) and the GI50 (TK-10) was > 100 µM (inactive). The GI50 (U-251) was > 100 µM (inactive), the GI50 (UACC-257) was 25.3 µM (inactive) and the GI50 (UACC-62) was > 100 µM (inactive). For the same compound, the GI50 (UO-31) was > 100 µM (inactive).
C=CCC1(OC(C)=O)C2OC(=O)C1(O)OCC2O (configuration not stated) was tested, and the GI50 (786-0) was > 100 µM (inactive), the GI50 (A498) was > 100 µM (inactive) and the GI50 (A549) was > 100 µM (inactive). The GI50 (ACHN) was > 100 µM (inactive), the GI50 (BT-549) was > 100 µM (inactive) and the GI50 (CAKI-1) was > 100 µM (inactive). The GI50 (CCRF-CEM) was > 100 µM (inactive), the GI50 (COLO 205) was > 100 µM (inactive) and the GI50 (DU-145) was > 100 µM (inactive). For the same compound, the GI50 (EKVX) was > 100 µM (inactive), the GI50 (HCC 2998) was > 100 µM (inactive) and the GI50 (HCT-116) was > 100 µM (inactive). For the same compound, the GI50 (HCT-15) was > 100 µM, the GI50 (HL-60) was > 100 µM (inactive) and the GI50 (HOP-62) was > 100 µM (inactive). The GI50 (HT-29) was > 100 µM (inactive), the GI50 (Hs-578T) was > 100 µM (inactive) and the GI50 (IGROV-1) was > 100 µM (inactive). The GI50 (K562) was > 100 µM (inactive), the GI50 (KM12) was > 100 µM (inactive) and the GI50 (LOX IMVI) was > 100 µM (inactive). For the same compound, the GI50 (M14) was > 100 µM (inactive), the GI50 (MCF7) was > 100 µM (inactive) and the GI50 (MDA-MB-231) was > 100 µM (inactive). For the same compound, the GI50 (MDA-MB-435) was > 100 µM (inactive), the GI50 (MDA-N) was > 100 µM (inactive) and the GI50 (MOLT-4) was > 100 µM (inactive). For the same compound, the GI50 (Malme-3M) was > 100 µM (inactive), the GI50 (NCI-H226) was > 100 µM (inactive) and the GI50 (NCI-H23) was > 100 µM (inactive). The GI50 (NCI-H460) was > 100 µM (inactive), the GI50 (NCI-H522) was > 100 µM (inactive) and the GI50 (NCI/ADR-RES) was > 100 µM (inactive). For the same compound, the GI50 (OVCAR-3) was > 100 µM (inactive), the GI50 (OVCAR-4) was > 100 µM (inactive) and the GI50 (OVCAR-5) was > 100 µM (inactive). For the same compound, the GI50 (OVCAR-8) was > 100 µM (inactive), the GI50 (PC-3) was > 100 µM (inactive) and the GI50 (RPMI-8226) was > 100 µM (inactive). For the same compound, the GI50 (RXF 393) was > 100 µM (inactive), the GI50 (SF-268) was > 100 µM (inactive) and the GI50 (SF-295) was > 100 µM (inactive). The GI50 (SF-539) was > 100 µM (inactive), the GI50 (SK-MEL-28) was > 100 µM (inactive) and the GI50 (SK-MEL-2) was > 100 µM (inactive). The GI50 (SK-MEL-5) was > 100 µM (inactive), the GI50 (SK-OV-3) was > 100 µM (inactive) and the GI50 (SN12C) was > 100 µM (inactive). The GI50 (SNB-19) was > 100 µM (inactive), the GI50 (SNB-75) was > 39.9 µM (inactive) and the GI50 (SR) was > 100 µM (inactive). The GI50 (SW-620) was > 100 µM (inactive), the GI50 (T47D) was > 100 µM (inactive) and the GI50 (TK-10) was > 70.8 µM (inactive). For the same compound, the GI50 (U-251) was > 100 µM (inactive), the GI50 (UACC-257) was > 100 µM (inactive) and the GI50 (UACC-62) was > 59.3 µM (inactive). For the same compound, the GI50 (UO-31) was > 100 µM (inactive).
With O=C(C=P(c1ccccc1)(c1ccccc1)c1ccccc1)c1cccc(-c2cccc([N+](=O)[O-])c2)c1 the GI50 (786-0) was 4.24 µM (inactive), the GI50 (A498) was 1.83 µM (inactive) and the GI50 (A549) was 3.62 µM (inactive). The GI50 (ACHN) was 2.89 µM (inactive), the GI50 (BT-549) was 4.74 µM (inactive) and the GI50 (CAKI-1) was 1.86 µM (inactive). For the same compound, the GI50 (CCRF-CEM) was 2.55 µM (inactive), the GI50 (COLO 205) was 1.53 µM (inactive) and the GI50 (DU-145) was 6.78 µM (inactive). For the same compound, the GI50 (EKVX) was 4.3 µM (inactive), the GI50 (HCC 2998) was 3.27 µM (inactive) and the GI50 (HCT-116) was 3.55 µM (inactive). The GI50 (HCT-15) was 3.16 µM, the GI50 (HL-60) was 1.76 µM (inactive) and the GI50 (HOP-62) was 8.04 µM (inactive). For the same compound, the GI50 (HOP-92) was 1.32 µM (inactive), the GI50 (HT-29) was 1.8 µM (inactive) and the GI50 (Hs-578T) was 3.44 µM (inactive). The GI50 (IGROV-1) was 2.94 µM (inactive), the GI50 (K562) was 2.99 µM (inactive) and the GI50 (KM12) was 3.67 µM (inactive). For the same compound, the GI50 (LOX IMVI) was 2.56 µM (inactive), the GI50 (M14) was 3.13 µM (inactive) and the GI50 (MCF7) was 3.47 µM (inactive). The GI50 (MDA-MB-231) was 2 µM (inactive), the GI50 (MDA-MB-435) was 2.68 µM (inactive) and the GI50 (MDA-N) was 2.49 µM (inactive). For the same compound, the GI50 (MOLT-4) was 1.68 µM (inactive), the GI50 (Malme-3M) was 2.86 µM (inactive) and the GI50 (NCI-H23) was 3.44 µM (inactive). The GI50 (NCI-H460) was 2.88 µM (inactive), the GI50 (NCI-H522) was 1.86 µM (inactive) and the GI50 (NCI/ADR-RES) was 3.42 µM (inactive). The GI50 (OVCAR-3) was 3.03 µM (inactive), the GI50 (OVCAR-4) was 2.45 µM (inactive) and the GI50 (OVCAR-5) was 3.1 µM (inactive). For the same compound, the GI50 (OVCAR-8) was 3.57 µM (inactive), the GI50 (PC-3) was 2.84 µM (inactive) and the GI50 (RPMI-8226) was 1.98 µM (inactive). For the same compound, the GI50 (RXF 393) was 5.66 µM (inactive), the GI50 (SF-268) was 3.93 µM (inactive) and the GI50 (SF-295) was 3.18 µM (inactive). For the same compound, the GI50 (SF-539) was 4.56 µM (inactive), the GI50 (SK-MEL-28) was 3.1 µM (inactive) and the GI50 (SK-MEL-5) was 2.37 µM (inactive). The GI50 (SK-OV-3) was 2.86 µM (inactive), the GI50 (SN12C) was 2.97 µM (inactive) and the GI50 (SNB-19) was 4.21 µM (inactive). The GI50 (SNB-75) was 1.51 µM (inactive), the GI50 (SR) was 2.58 µM (inactive) and the GI50 (SW-620) was 3.33 µM (inactive). The GI50 (T47D) was 4.9 µM (inactive), the GI50 (TK-10) was 3.18 µM (inactive) and the GI50 (U-251) was 3.89 µM (inactive). The GI50 (UACC-62) was 1.72 µM (inactive) and the GI50 (UO-31) was 3.11 µM (inactive).
